What was measured:
Human LDLs = test: Oxidation of human LDL by cupric ions (fluorescence), antioxidant effect; format: biochemical
Description: Human LDLs placed in aqueous solution in the presence of cupric ions, become spontaneously oxidised on their protein component, apolipoprotein-B. This oxidation makes the particle fluorescent, which is exploited to measure a pharmacological effect.
The reactions and measurements are carried out in black 96-well plates. 10 μl of a solution of the test product dissolved in dimethyl sulfoxide are first mixed with 170 μl of a solution of human LDL at a concentration of 120 μg/ml and 20 μl of 100 μM CuCl2. After stirring, the mixture is incubated for 2 hours at 37° C., and a first fluorescence reading is taken (excitation at 360 nm, reading at 460 nm). The mixture is then incubated for a further 22 hours, to take a second reading under the same conditions. The difference is proportionately smaller the greater the antioxidant power of the test product. Probucol is used as reference product at a concentration of 10 μM.
The concentrations that inhibit 50% (IC50) of the oxidation are prepared from three concentrations of the test product. They are given in Table B below for some of the compounds of the formula I given as examples below.

[1] = Spontaneous release of nitric oxide, titrated as nitrites+nitrates (Griess reagent, nitrate reductase); details: nitrites+nitrates released; test product 150 μM, 4 hours at 37° C., pH 7.5 PBS buffer; compounds of formula I
Description: A solution of a compound of the formula I of the invention spontaneously releases nitric oxide. The nitrite ions resulting therefrom are titrated by colorimetry by means of a specific reagent (Griess). To take account of any release of nitrate ions in addition to the nitrites, bacterial nitrate reductase is added to the reaction medium to reduce the nitrate ions formed.
The reactions and measurements are carried out in transparent 96-well plates. The test products are dissolved at the time of use, at a concentration of 3 mM in dimethyl sulfoxide. 95 μl of a reagent containing nitrate reductase (0.18 U/ml in 100 mM pH 7.5 PBS buffer, 210 μM β-NADPH, 5 μM FAD) and 5 μl of the solution of the test product (final concentration of 150 μM) are then added to each well. After stirring, the mixtures are incubated for 4 hours at 37° C. The reaction is then stopped by adding 100 μl of Griess' reagent (Sigma G4410). The resulting mixture is stirred for 5 min at room temperature, and the optical density is then read at 540 nm. This value is proportional to the concentration of nitrites+nitrates in the medium. A calibration range is made for each plate, using NaNO2.
The results are expressed as μmol/l (μM) of nitrites+nitrates released in Table A for some of the compounds of the formula I given as examples below.

[2] = oxidation of human lipoproteins, compounds of formula II (Table C)
[3] = human LDL + CuCl2, fluorescence 2 h vs 24 h at 37° C., compounds of formula I (Table B)

Compound	IC50 (Human LDLs; [2]) [µM]	Nitrites-Nitrates [1] [µM]	IC50 (Human LDLs; [3]) [µM]	melting point [°C]
COc1ccc(Nc2cccc(C(=O)Nc3cccnc3)c2)cc1 [Example 4a, 3-[(4-Methoxyphenyl)amino]-N-pyrid-3-ylbenzamide]	9.1			
COc1ccc(N(N=O)c2cccc(C(=O)Nc3cccnc3)c2)cc1 [Example 4b, 3-[1-(4-Methoxyphenyl)-2-oxohydrazino]-N-pyrid-3-ylbenzamide]		70	12.7	
COc1ccc(Nc2ccc(C(=O)Nc3ccccc3)cc2)cc1 [Example 33a]	12.9			
COc1ccc(N(N=O)c2ccc(C(=O)NCCN3CCN(C)CC3)cc2)cc1 [Example 6b, 4-[1-(4-Methoxyphenyl)-2-oxohydrazino]-N-[2-(4-methylpiperazin-1-yl)-ethyl]benzamide]		58		
COc1ccc(N(N=O)c2ccc(C(=O)Nc3cccnc3)cc2)cc1 [Example 1b, 4-[1-(4-Methoxyphenyl)-2-oxohydrazino]-N-pyrid-3-ylbenzamide]		63	4.6	167 to 169
COc1ccc(N(N=O)c2ccc(C(=O)Nc3ccncc3)cc2)cc1 [Example 15b]		82	4.8	
COc1ccc(Nc2ccc(C(=O)Nc3cccc([N+](=O)[O-])c3)cc2)cc1 [Example 8a]	10			
COc1ccc(N(N=O)c2ccc(C(=O)Nc3ccccn3)cc2)cc1 [Example 14b, 4-[1-(4-methoxyphenyl)-2-oxohydrazino]-N-pyrid-2-ylbenzamide]		90		
O=NN(c1ccc(C(=O)Nc2cccnc2)cc1)c1ccc([N+](=O)[O-])cc1 [Example 5b, 4-[1-(4-Nitrophenyl)-2-oxohydrazino]-N-pyrid-3-ylbenzamide]		47		

The next lines start with results.

IC50 (Human LDLs; [2]) [µM]	Nitrites-Nitrates [1] [µM]	IC50 (Human LDLs; [3]) [µM]	Compound	melting point [°C]
7.5			COc1ccc(Nc2cccc(C(=O)Nc3ccncc3)c2)cc1 [Example 135a]	
19.8			COc1ccc(Nc2ccc(S(=O)(=O)Nc3cccnc3)cc2)cc1 [Example 136a]	
7.7			COc1ccc(Nc2cccc(C(=O)NCc3cccnc3)c2)cc1 [Example 132a]	
	82	9.3	COc1ccc(N(N=O)c2cccc(C(=O)NCc3cccnc3)c2)cc1 [Example 132b]	
	75	8.6	COc1ccc(N(N=O)c2cccc(C(=O)Nc3ccncc3)c2)cc1 [Example 135b]	
4.5			COc1ccc(Nc2cccc(C(=O)Nc3ccccn3)c2)cc1 [Example 134a]	
